According to patent US8034574B2, “Screening method for prokinetic agent” (Astellas Pharma Inc., priority 2006, dated 2011):
“Also recorded” adds a separate entry of the source. Where a name gives a salt, the structure may show the parent alone.

What was measured:
[1] = system: RIN14B cells; assay: Channel activity in RIN14B cells using calcium-sensitive fluorescent reagent (FLIPR); type: cell-based, rat; conditions: for elevation of fluorescence intensity (calcium inflow) in RIN14B cells: Fluo3-AM
Method: RIN14B cells (5×10^4 cells), wherein the expression of TRPA1 was confirmed in Example 10, were incubated in the presence of a calcium-sensitive fluorescent reagent (Fluo3-AM; DOJINDO) at 37° C. for 1 hour to thereby incorporate the calcium-sensitive fluorescent reagent in the cells, after which the cells were washed with physiological saline to remove the calcium-sensitive fluorescent reagent that had not been incorporated in the cells. To the cells obtained, physiological saline supplemented with allyl isothiocyanate, cinnamic aldehyde, or acrolein was added; the fluorescence emitted by the cells was measured over time. The above-described measurements were performed using an automated fluorescence detection apparatus (FLIPR; Molecular Device). […] Ruthenium Red was added concurrently and a measurement was performed to determine whether or not calcium inflow in the cells was be inhibited.

[2] = biological target: T1, human TRPA1 (polypeptide of SEQ ID NO:2) (Homo sapiens, UniProt O75762, K186N/R3C/R58T); assay: TRPA1 inhibitor screening by FLIPR, calcium inflow after addition of cinnamic aldehyde; type: cell-based; conditions: read-out: inhibitory activity on the polypeptide of SEQ ID NO:2 in terms of IC50
T1 construct: expressed in transfected cells; host or cells: CHO-K1 cells, transient transfection of the pcDNA3.1(+) human TRPA1 vector
T1 sequence (O75762 whole entry R3C/R58T/K186N): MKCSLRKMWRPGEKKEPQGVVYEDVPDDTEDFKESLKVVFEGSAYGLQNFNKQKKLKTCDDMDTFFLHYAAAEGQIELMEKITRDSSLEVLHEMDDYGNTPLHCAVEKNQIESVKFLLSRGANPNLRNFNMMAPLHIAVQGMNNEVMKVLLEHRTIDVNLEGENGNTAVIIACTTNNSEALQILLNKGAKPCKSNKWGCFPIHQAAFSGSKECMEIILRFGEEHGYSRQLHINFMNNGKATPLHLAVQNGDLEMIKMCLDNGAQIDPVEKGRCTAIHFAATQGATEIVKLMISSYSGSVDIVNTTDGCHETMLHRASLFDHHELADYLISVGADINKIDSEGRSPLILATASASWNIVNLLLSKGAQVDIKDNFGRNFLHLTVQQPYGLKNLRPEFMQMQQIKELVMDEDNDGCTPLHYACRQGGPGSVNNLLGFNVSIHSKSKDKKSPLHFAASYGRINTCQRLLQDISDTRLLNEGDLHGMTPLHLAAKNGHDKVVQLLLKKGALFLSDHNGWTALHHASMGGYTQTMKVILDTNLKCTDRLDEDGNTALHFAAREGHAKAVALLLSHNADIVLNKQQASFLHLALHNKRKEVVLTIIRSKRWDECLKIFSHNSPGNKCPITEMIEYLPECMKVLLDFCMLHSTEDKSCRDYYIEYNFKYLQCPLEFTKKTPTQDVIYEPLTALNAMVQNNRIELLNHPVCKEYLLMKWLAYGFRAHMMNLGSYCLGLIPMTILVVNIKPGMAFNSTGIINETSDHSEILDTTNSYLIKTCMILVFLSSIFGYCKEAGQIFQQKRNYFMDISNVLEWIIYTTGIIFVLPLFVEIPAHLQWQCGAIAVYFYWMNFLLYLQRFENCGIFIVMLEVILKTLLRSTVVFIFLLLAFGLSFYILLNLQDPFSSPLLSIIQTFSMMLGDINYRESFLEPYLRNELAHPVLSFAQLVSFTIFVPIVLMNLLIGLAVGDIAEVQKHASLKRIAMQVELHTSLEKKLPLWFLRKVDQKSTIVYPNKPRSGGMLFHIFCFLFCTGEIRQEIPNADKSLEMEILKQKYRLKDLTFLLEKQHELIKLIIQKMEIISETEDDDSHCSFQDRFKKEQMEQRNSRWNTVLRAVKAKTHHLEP
Method: To measure the changes in intracellular calcium concentration by FLIPR, the following pre-treatment was performed. First, an assay buffer for adding the fluorescent dye Fluo3-AM (DOJIN) to the cells, or for washing the cells just before performing the FLIPR assay, was prepared. To a solution prepared by adding 20 ml of 1M HEPES (pH 7.4) (Invitrogen) to 1000 ml of HBSS (Invitrogen) (hereinafter, HBSS/HEPES solution), 10 ml of a solution prepared by dissolving 710 mg of probenecid (Sigma) in 5 ml of 1N NaOH and then adding 5 ml of the HBSS/HEPES solution, was added and mixed, and this solution was used as the assay buffer. […] After this pretreatment was performed, changes in intracellular calcium concentration after addition of the various test samples were measured with the FLIPR.
Compounds that inhibit a polypeptide consisting of the amino acid sequence shown by SEQ ID NO:2 (inhibitor) were screened for. Inhibitory activity was measured by performing detection of calcium inflow in the cells using a calcium-sensitive fluorescent reagent; specifically, the method described in Example 3 was used with a modification. […]

[3] = system: RIN14B cells; assay: Serotonin secretion from RIN14B cells (immunoassay); type: cell-based, rat; conditions: for serotonin secretion from RIN14B cells: 20 minutes culture
Method: After RIN14B cells in culture in a Petri dish were detached using a PBS containing 1 mM EDTA, they were sown to a 96-well plate and cultured for 2 days. The medium used was RPMI1640 (Invitrogen Japan K.K.) supplemented with 10% fetal bovine serum (ICN), 100 U/ml penicillin, and 100 μg/ml streptomycin. After the cells were once washed with Hanks' Balanced Salt Solutions (HBSS, Invitrogen) supplemented with 0.1% BSA and 10 μM fluoxetine (TOCRIS), each TRPA1 activator, previously diluted/prepared with the above-described HBSS, was added, and the RIN14B cells were cultured at 37° C. in the presence of 5% CO2 for 20 minutes. After the cultivation, the cell supernatant was recovered, and stored under freezing. The serotonin content in the supernatant was measured using a commercially available serotonin immunoassay kit (Beckman).

[4] = system: guinea pig ileum; assay: Isolated guinea pig gut constriction (Magnus, ileum); conditions: for EC50: Cavia porcellus, read-out: EC50(μM) †; for Action: Magnus (guinea pig ileum); for suppression of contraction upon stimulation with acrolein by serotonin receptor antagonists: acrolein 300 μM, pizotifen maleate 10 μM, ramosetron hydrochloride 0.3 μM, vs vehicle
Method: Guinea pigs (Hartley strain, male, weighing 300-400 g), under ether anesthesia, were exsanguinated to death by cutting the carotid artery. The ileum was extirpated, about 15-cm portions at both ends were removed, a section 1.5 cm long was cut out from the remaining portion, and incisions were made longitudinally parallelly in the gut to prepare a tabular specimen. This specimen was sandwiched with serrefine at both ends, and suspended with a thread in a Magnus chamber containing 10 ml of a 37° C. Krebs solution (118 mM NaCl, 4.7 mM KCl, 2.5 mM CaCl2, 1.2 mM MgSO4, 1.2 mM KH2PO4, 11 mM D-glucose, 20 mM NaHCO3) aerated with 95% O2-5% CO2 mixed gas. A 1-g load was applied to the specimen, buffers were exchanged at 15-minute intervals, and the specimen was allowed to stand for about 60 minutes to stabilize its tension. Changes in the tension in response to agonist stimulation were measured isometrically, and recorded on a recorder. Acetylcholine, 10^−5 M, was administered to induce contraction of the ileum specimen; after the contraction maximized, the bath was washed three times to purge out the acetylcholine. This operation was repeated at 10-minute intervals, and after the induced contraction stabilized two consecutive times, each test substance was administered. By comparing the contractile forces produced by acetylcholine and the test substance, the effect of the test substance was evaluated. One specimen was investigated only at one concentration of the test substance. […] From the results above, it was shown that the TRPA1 activator induced gut contraction.
The serotonin receptor antagonists used were pizotifen maleate (10 μM), a 5-HT1,2 receptor antagonist, ketanserin tartrate (0.1 μM), a 5-HT2 receptor antagonist, ramosetron hydrochloride (0.3 μM), a 5-HT3 receptor antagonist, and GR113808 (0.3 μM), a 5-HT4 receptor antagonist.
The inhibitory actions of various serotonin receptor antagonists on contraction upon stimulation with acrolein (300 μM) were investigated in the same manner. […] From the results above, it was shown that serotonin was released upon stimulation with acrolein to induce contraction via serotonin receptors such as 5-HT1 receptor and 5-HT3 receptor.

[5] = biological target: T1, human TRPA1 (polypeptide of SEQ ID NO:2); assay: Intracellular calcium by FLIPR in CHO-K1 cells expressing human TRPA1 (activator screening); type: cell-based
Method: To detect the TRPA1 channel activity of a polypeptide consisting of the amino acid sequence shown by SEQ ID NO:2, the expression vector obtained in Example 1 above was transfected to animal cells, whereby the aforementioned protein was expressed.
Various test samples were added to CHO-K1 cells forced to is transiently express TRPA1 by the transfection operation of Example 2 above, and the resulting changes in intracellular calcium concentration were measured using FLIPR (Molecular Device).
To measure the changes in intracellular calcium concentration by FLIPR, the following pre-treatment was performed. First, an assay buffer for adding the fluorescent dye Fluo3-AM (DOJIN) to the cells, or for washing the cells just before performing the FLIPR assay, was prepared. To a solution prepared by adding 20 ml of 1M HEPES (pH 7.4) (Invitrogen) to 1000 ml of HBSS (Invitrogen) (hereinafter, HBSS/HEPES solution), 10 ml of a solution prepared by dissolving 710 mg of probenecid (Sigma) in 5 ml of 1N NaOH and then adding 5 ml of the HBSS/HEPES solution, was added and mixed, and this solution was used as the assay buffer. Next, 50 μg of Fluo3-AM was dissolved in 22 μl of DMSO (DOJIN), and an equal volume of 20% pluronic acid (Molecular Probes) was added and mixed, after which this mixture was added to 10.6 ml of the assay buffer supplemented with 105 μl of fetal bovine serum, whereby a fluorescent dye solution was prepared. […] After this pretreatment was performed, changes in intracellular calcium concentration after addition of the various test samples were measured with the FLIPR.
Compounds that activate a polypeptide consisting of the amino acid sequence shown by SEQ ID NO:2 (activators) were screened for. As an index of activation, calcium inflow in the cells was detected using a calcium-sensitive fluorescent reagent; specifically, the method described in Example 3 was used.

[6] = system: CHO-K1 cells not expressing the polypeptide shown by SEQ ID NO:2; assay: Intracellular calcium by FLIPR in negative control CHO-K1 cells; type: cell-based; conditions: CHO-K1 cells not expressing TRPA1
[7] = system: rat EC cells; assay: Serotonin secretion from rat small intestine EC cells; type: cell-based; conditions: 45 minutes culture
Method: A Wistar rat (male, 8-week-old) was decapitated and exsanguinated, after which it was dissected and laparotomized with scissors, and the small intestine was extirpated. The inside of the lumen of the extirpated small intestine was washed with physiological saline, and about 20 mL of Buffer A (70 mM NaCl, 5 mM KCl, 20 mM NaHCO3, 0.5 mM NaH2PO4, 50 mM HEPES (pH 7.2), 11 mM glucose, 3 mM EDTA, 0.5% BSA, 0.05 mM dithiothreitol, 1 mg/mL N-acetyl-L-cysteine) was injected, after which both ends were closed, and the small intestine was allowed to stand in 37° C. incubated HBSS for 10 minutes. Thereafter, the Buffer A in the lumen of the small intestine was discarded, about 20 mL of Buffer A was injected again, and the small intestine was allowed to stand in 37° C. incubated HBSS for 10 minutes. Again, the Buffer A in the lumen of the small intestine was discarded, fresh Buffer A was injected, and the small intestine was allowed to stand in 37° C. incubated HBSS for 20 minutes, after which the lumen content was recovered. […]
Serotonin secretion activity in EC cells prepared by the method described in Example 9-(3) was measured by a method modified from the method of Example 14 above. […]
The serotonin content in the supernatant was measured using a commercially available serotonin immunoassay kit (Beckman). […]

[8] = system: guinea pig ileum; assay: Isolated guinea pig gut constriction (Magnus, ileum); conditions: allyl isothiocyanate 300 μM; pizotifen maleate 10 μM, ramosetron hydrochloride 0.3 μM; vs vehicle

Compound | elevation of fluorescence intensity (calcium inflow) in RIN14B cells ([1]; RIN14B cells) | serotonin secretion from RIN14B cells [3] | elevation of fluorescence intensity in negative control cells [6] | EC50 [4] | Action [4] | suppression of contraction upon stimulation with allyl isothiocyanate by serotonin receptor antagonists [8] | suppression of contraction upon stimulation with acrolein by serotonin receptor antagonists [4] | other results
N.N.N.N.N.N.N.N.N.N.N.N.N.N.[Cl-].[Cl-].[Cl-].[Cl-].[Cl-].[Cl-].[O-2].[O-2].[Ru+3].[Ru+3].[Ru+4] [Ruthenium Red] |  |  |  |  |  |  |  | inhibition of activation by allyl isothiocyanate ([1]; 30 μM Ruthenium Red, RIN14B cells): 90.9%; inhibition of activator-induced elevation of fluorescence intensity ([1]; added concurrently with allyl isothiocyanate, cinnamic aldehyde or acrolein): the elevation of fluorescence intensity was inhibited; IC50 [2]: 2.2 µM; inhibition of acrolein-induced serotonin secretion ([3]; 30 μM Ruthenium Red, acrolein 30 μM): 73.0%; suppression of cinnamic aldehyde-induced serotonin secretion ([3]; Ruthenium Red 30 μM, cinnamic aldehyde 30 μM): completely suppressed; suppression of contraction upon stimulation with allyl isothiocyanate by TRPA1 inhibitor ([4]; Ruthenium Red 30 μM for 15 minutes, allyl isothiocyanate 300 μM, vs vehicle-applied specimen): about 84%
C=CC=O [acrolein] | an elevation of fluorescence intensity was detected | serotonin secretion was promoted; also recorded: concentration-dependently promoted the release of serotonin | none of these compounds produced an elevation of fluorescence intensity | 70.3 µM | Contraction |  |  | EC50 [5]: 7 µM; change in intracellular calcium concentration ([5]; CHO-K1 cells expressing human TRPA1, FLIPR, Fluo3-AM): responded specifically (elevation of intracellular calcium concentration); concentration at which constrictive action was observed ([4]; tested at 10, 30, 100, 300 μM): ≥ 10 µM
O=C/C=C/c1ccccc1 [cinnamic aldehyde] | an elevation of fluorescence intensity was detected | serotonin secretion was promoted; also recorded: concentration-dependently promoted the release of serotonin | none of these compounds produced an elevation of fluorescence intensity | 88.3 µM | Contraction |  |  | serotonin secretion from rat EC cells [7]: significant serotonin secretion promoting activity was observed; also recorded: promoted the release of serotonin from the EC cells
Cn1cc(C(=O)[C@@H]2CCc3nc[nH]c3C2)c2ccccc21 [ramosetron hydrochloride] |  |  |  |  |  | about 74% | about 84% | 
pizotifen maleate |  |  |  |  |  | about 44% | about 74% | 
